According to patent US6384052B1, “Anticoccidial compounds” (Merck & Co., Inc., priority 1999, dated 2002):

What was measured:
[1] = Acute Toxicity Evaluation (intraperitoneal, twice a day for three days); type: in vivo; details: 100 mg/kg/day intraperitoneally, necropsy on day 4, two chickens per group
Experimental: For acute toxicity evaluation, chickens are dosed intraperitoneally twice a day at desired dose for three days. On day 4 birds are necropsied and examined for gross lesions and weight suppression. Two chickens are used in each treatment group.

[2] = test system: Eimeria acervulina, E. tenella; experiment: Anticoccidiosis assay (oocyst production in infected chickens on medicated diet); type: in vivo, White Leghorn chickens; parameters: key: at least 80% reduction in oocyst production are considered active; those with 50-79% are considered partially active; those with <50% are considered inactive; details: 100 ppm in diet; chickens infected with E. acervulina or E. tenella
Experimental: (§1) Compound of the present invention and 2-(4-fluorophenyl)-5-(N-methylpiperidin-4-yl)-3-(4-pyridyl)pyrrole were evaluated in anticoccidiosis assay and toxicology studies. In these studies, medicated diets were prepared by dissolving the proper quantity of the test compound in dimethylsulfoxide or acetone, mixing the resultant solution into a few grams of the basal diet, and then placing the mixture under a fume hood for dehydration. The dry mixture is made into a uniform premix with an electric grinder, and then blended with the desired quantity of basal diet for the final formulation in a commercial bowl mixer.
One-day-old White Leghorn chickens are obtained from a commercial hatchery and acclimated in a holding room. At three days of age the test animals are selected by weight, wingbanded, and randomly placed on medicated or control diets for the duration of the experiment. One or two replicates of two birds are utilized per treatment. Following 24 h premedication, in each replicate one bird is infected with Eimeria acervulina, the other bird is infected with E. tenella. Both strains of Eimeria are sensitive to all anticoccidial products, and have been maintained in laboratory conditions for over 25 years. […] The measured parameters are weight gain, feed consumption and oocyst production. E. tenella lesion scores are also recorded for background information. […]

[3] = Toxicity Evaluation (38-day medicated diet, liver necrosis and urate crystal deposition); type: in vivo, male broiler chickens; details: 125 ppm in diet; for chickens with urate crystal deposition in the kidneys: affected/examined
Experimental: as §1
Day-old male broiler chickens are received on Day 0 of the trial, weighed, wingbanded, and placed on medicated or control diet in standard battery cages. Three treatments are used in the study: (A) medicated diet containing 125 ppm of 2-(4-fluorophenyl)-5-(N-methylpiperidin-4-yl)-3-(4-pyridyl)pyrrole; (B) medicated diet containing 125 ppm of 2-(4-fluorophenyl)-5-(N-ethylpiperidin-4-yl)-3-(4-pyridyl)pyrrole; and (C) no medication. A total of 48 chickens are utilized per treatment. Of these, 12 birds (2 replicates of 6) are examined on D7, D14, D24 and D38 for liver necrosis and urate crystal deposition. Growth rates, feed efficiency and plasma levels are determined for background information. The trial is terminated on D38.

CCN1CCC(c2cc(-c3ccncc3)c(-c3ccc(F)cc3)[nH]2)CC1 [2-(4-fluorophenyl)-5-(N-ethylpiperidin-4-yl)-3-(4-pyridyl)pyrrole]
liver necrosis / gross liver lesions at necropsy [1]: none | anticoccidial activity (reduction in oocyst production) [2]: active | chickens showing liver necrosis or urate crystal deposition ([3]; 12 birds examined on each of D7, D14, D24 and D38): None

CN1CCC(c2cc(-c3ccncc3)c(-c3ccc(F)cc3)[nH]2)CC1 [2-(4-fluorophenyl)-5-(N-methylpiperidin-4-yl)-3-(4-pyridyl)pyrrole]
liver necrosis / gross liver lesions at necropsy [1]: demonstrated gross liver lesions | anticoccidial activity (reduction in oocyst production) [2]: active | chickens with urate crystal deposition in the kidneys ([3]; examined on D14): 3/12 | chickens with urate crystal deposition in the kidneys ([3]; examined on D38): 4/12
